In patent US8715959B2, “Substitution mutant receptors and their use in a nuclear receptor-based inducible gene expression system” (priority 2001, dated 2014):

Assays:
wild-type CfEcR-A/BCDEF = target: T1, wild-type CfEcR-A/BCDEF (Choristoneura fumiferana, UniProt O77240); assay: 3H-RH2485 competition ligand binding, wild-type CfEcR-A/BCDEF with CfUSP
T1 construct: "The full-length spruce budworm Choristoneura fumiferana EcR (“CfEcR-A/BCDEF”); b350 and b353 describe plain full-length EcR translated in vitro

[1] = target: A110P mutant CfEcR-A/BCDEF (Choristoneura fumiferana, UniProt O77255, A393P); assay: 3H-RH2485 competition ligand binding, A110P mutant CfEcR-A/BCDEF with CfUSP
Experimental: The ligand binding affinities of the A110P GAL4/CfEcR mutant were measured by binding ^3H-RH2485 and competing it with different concentrations of cold steroids or non-steroids. Briefly, 3H-RH2485 was bound to in vitro translated full-length CfEcR and bacterially expressed CfUSP and competed with increasing concentrations of cold steroidal or non-steroidal ligands. The reaction was carried out at room temperature for 1 hour followed by addition of activated dextran coated charcoal and centrifugation at 7000×g for 10 minutes at 4° C. The residual ^3H-RH2485 in the supernatant after centrifugation was measured using a scintillation counter. The fraction bound (f bound) values were determined and plotted against the concentration of ligand (in mM).

WT full-length EcR = assay: In vitro ligand binding assay with 3H-RH2485 and cold competitors, full-length WT EcR (FIG. 1); set-up: species or system Choristoneura fumiferana; settings: cold ligand as competitor
Experimental: (§1) Applicants tested the A110P mutant CfEcR receptor in a steroid and non-steroid ligand binding assay to confirm that steroid binding was eliminated. Briefly, PonA binding activity was determined using an in vitro ligand binding assay (LBA). Steroid ligand binding assay (LBA) was performed using ^3H-PonA (200 Ci/mmol). In vitro translated Gal4/wild-type or A110P mutant CfEcR-DEF and bacterial expressed GST-CfUSP-A/BCDEF were used in the assay. The assay was performed with 8 μL of Gal4/wild-type or A110P mutant CfEcR-DEF, 2.5 uL of GST-CfUSP-A/BCDEF, 1 μL of ^3H-PonA, and 2 μL of unlabeled (“cold”) PonA as competitor in the presence of T buffer [90 mM Tris pH 8.0, 10 μM DTT comprising Complete™ protease inhibitor cocktail used according to the manufacturer's instructions (Boehringer Mannheim)]. The reaction was carried out at room temperature for 1 hour followed by the addition of dextran-coated charcoal (Sigma). The mixture was centrifuged at 7000×g for 10 minutes the amount of ^3H-PonA in the supernatant was measured. The reactions were done in triplicate. The full-length WT EcR or its A110P mutant were also in vitro translated and transcribed using the TNT system (Promega) according to the manufacturer's instructions and tested in in vitro ligand binding assays using 3H-RH2485, with cold 20E or non-steroids (RH2485 and GS™-E) as competitors. In addition, 5 μL of the in vitro translations were assayed for translation efficiency using SDS-PAGE following standard methods (Maniatis, 1989). The ligand binding results for both the wild-type and A110P mutant CfEcR-DEF receptors were calculated and are shown in FIG. 1.

A110P mutant CfEcR = assay: In vitro ligand binding assay with 3H-RH2485 and cold competitors, full-length A110P mutant (FIG. 1); set-up: species or system Choristoneura fumiferana; settings: cold ligand as competitor of 3H-RH2485
Experimental: as §1

CfEcR-DEF = assay: GAL4 fusions of A110 mutants of CfEcR-DEF, reporter transactivation in NIH3T3 cells (FIG. 4); type: cell-based, Choristoneura fumiferana; settings: 0.04-25 μM GS™-E or RH-125020, 48 hours
Experimental: Four mutations: A110S, A110P, A110L, and A110M were obtained. These four mutant and wild-type receptors were assayed in NIH3T3 cells.

DmEcR-CDEF [2] = assay: GAL4/DmEcR-CDEF wild-type and mutants, luciferase reporter transactivation in NIH3T3 cells; type: cell-based, Drosophila melanogaster; settings: GAL4/DmEcR-CDEF + VP16/LmUSP-EF + pFRLUC, 48 hours
Experimental: DNAs corresponding to the various switch constructs outlined in Example 1, specifically switches 1.1-1.2, were transfected into mouse NIH3T3 cells (ATCC) as follows. […] Two μl of Superfect™ was mixed with 100 μl of growth medium and 50 ng of either GAL4/wild-type EcR or Gal4/mutant EcR cassette, 50 ng of VP16/LmUSP-EF and 200 ng of pFRLuc were added to the transfection mix. […] The cells were harvested and reporter activity was assayed as described above.
Applicants mutated amino acid residues predicted to be critical for ecdysteroid binding and created GAL4/mutantDmEcR-CDEF cDNA gene expression cassettes as described in Example 1 above using PCR-mediated site-directed mutagenesis. The mutated and the WT cDNAs corresponding to the various switch constructs outlined above in Examples 1.8 and 1.9 were made and tested in reporter assays in NIH3T3 cells as described in Example 2. Each GAL4/DmEcR-CDEF construct, VP16/LmUSP-EF, and pFRLUC were transfected into NIH3T3 cells and the transfected cells were treated with 2.5 μM GS-™E or Ponasterone A. The cells were harvested and the reporter activity was measured at 48 hours after addition of ligand. The fold induction was calculated by dividing reporter activity in the presence of ligand with the reporter activity in the absence of ligand. From the fold induction, percent wild-type activity was calculated for each mutant.

DmEcR-CDEF [3] = assay: VP16/DmEcR-CDEF wild-type and mutants, 6xEcRE β-gal reporter transactivation in insect L57 cells; type: cell-based, Drosophila melanogaster; settings: for Fold increase over WT, 1 μM 20-hydroxyecdysone / Fold increase over WT, 1 μM GS™-E: VP16/DmEcR-CDEF; for steroid activity (summary of Table 14): 20E; for steroid activity (summary of Table 14) / non-steroid activity (summary of Table 14): DmEcR mutants; for non-steroid activity (summary of Table 14): GS™-E
Experimental: The wild-type and mutant DmEcR-CDEF receptors were also used to make VP16/wild-type or mutantDmEcR-CDEF constructs as described in Example 1.10 and 1.11. VP16DmEcR-CDEF and a 6×EcREβ-gal reporter were transfected into L57 cells and the transfected cells were treated with 1 uM 20-hydroxyecdysone (20E) or GS™-E. The cells were harvested, lysed and the reporter activity was measured as described above in Example 6. The fold induction was calculated by dividing reporter activity in the presence of ligand with the reporter activity in the absence of ligand. From the fold induction, percent wild-type activity was calculated for each mutant.

Sequence of A110P mutant CfEcR-A/BCDEF (O77255 entry or part of it A393P): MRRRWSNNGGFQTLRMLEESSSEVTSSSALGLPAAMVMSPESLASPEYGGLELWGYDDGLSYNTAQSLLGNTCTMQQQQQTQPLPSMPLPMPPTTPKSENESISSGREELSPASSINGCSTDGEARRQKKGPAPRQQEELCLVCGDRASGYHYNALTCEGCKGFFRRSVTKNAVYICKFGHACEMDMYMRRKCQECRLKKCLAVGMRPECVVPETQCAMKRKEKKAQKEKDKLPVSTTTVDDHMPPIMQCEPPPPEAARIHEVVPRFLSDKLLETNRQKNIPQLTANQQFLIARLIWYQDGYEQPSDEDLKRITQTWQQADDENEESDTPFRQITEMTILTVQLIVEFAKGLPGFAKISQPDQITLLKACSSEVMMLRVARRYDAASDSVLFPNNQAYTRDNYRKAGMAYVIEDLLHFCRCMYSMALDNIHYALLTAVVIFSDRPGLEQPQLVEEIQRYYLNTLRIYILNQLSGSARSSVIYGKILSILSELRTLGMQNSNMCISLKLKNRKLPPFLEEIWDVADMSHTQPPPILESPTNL
Sequence of A110P mutant CfEcR-A/BCDEF (O76202 whole entry, further chain, the tested form may be a part): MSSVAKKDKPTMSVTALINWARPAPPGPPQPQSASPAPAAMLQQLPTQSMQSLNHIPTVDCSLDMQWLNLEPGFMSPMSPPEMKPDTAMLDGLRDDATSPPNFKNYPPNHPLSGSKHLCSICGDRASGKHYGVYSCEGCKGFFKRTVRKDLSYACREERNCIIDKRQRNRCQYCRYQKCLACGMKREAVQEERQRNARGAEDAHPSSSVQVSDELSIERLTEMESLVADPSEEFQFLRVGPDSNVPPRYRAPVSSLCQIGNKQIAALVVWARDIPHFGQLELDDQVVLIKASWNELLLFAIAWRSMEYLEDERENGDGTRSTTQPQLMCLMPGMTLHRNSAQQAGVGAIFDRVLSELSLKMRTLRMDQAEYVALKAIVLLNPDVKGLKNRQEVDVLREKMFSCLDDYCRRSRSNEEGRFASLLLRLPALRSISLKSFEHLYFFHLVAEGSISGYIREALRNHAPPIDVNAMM

What does the source list for `CCc1c(OC)cccc1C(=O)NN(C(=O)c1cc(C)cc(C)c1)C(C)(C)C` [GS ™-E, N-(2-ethyl-3-methoxybenzoyl)-N′-(3,5-dimethylbenzoyl)-N′-tert-butylhydrazine]?
IC50 (wild-type CfEcR-A/BCDEF): 85.3 nM; IC50 [1]: 0.0129 µM; competition with bound 3H-RH2485 (binding to WT full-length EcR) (WT full-length EcR): able to effectively compete; binding of ligand by the A110P mutant (A110P mutant CfEcR): unaffected

Which results are given for `CC(C)CC[C@@H](O)[C@](C)(O)[C@H]1CC[C@@]2(O)C3=CC(=O)[C@]4(O)C[C@@H](O)[C@@H](O)C[C@]4(C)[C@H]3[C@H](O)C[C@]12C` [Muristerone A, muristeroneA]?
IC50 (wild-type CfEcR-A/BCDEF): 424 nM; IC50 [1]: > 1000 µM

Which results are given for `CC(C)(O)CC[C@@H](O)[C@](C)(O)[C@H]1CC[C@@]2(O)C3=CC(=O)[C@@H]4C[C@@H](O)[C@@H](O)C[C@]4(C)[C@H]3CC[C@]12C` [Mutant 20E, 20-hydroxyecdysone]?
competition with bound 3H-RH2485 (binding to WT full-length EcR) (WT full-length EcR): able to effectively compete; binding of ligand by the A110P mutant (A110P mutant CfEcR): completely disrupted

For `CC(C)CC[C@@H](O)[C@](C)(O)[C@H]1CC[C@@]2(O)C3=CC(=O)[C@@H]4C[C@@H](O)[C@@H](O)C[C@]4(C)[C@H]3CC[C@]12C` [Ponasterone A, ponasterone A], which IC50 (wild-type CfEcR-A/BCDEF) is on record?
The IC50 was 346 nM.

And the IC50 [1]?
Its IC50 is > 1000 µM.

Which results are given for `COc1cccc(C(=O)NN(C(=O)c2cc(C)cc(C)c2)C(C)(C)C)c1C` [RH-2485, N′-tert-butyl-N′-(3,5-dimethylbenzoyl)-3-methoxy-2-methylbenzohydrazide]?
IC50 (wild-type CfEcR-A/BCDEF): 1800 nM; IC50 [1]: 0.35 µM; competition with bound 3H-RH2485 (binding to WT full-length EcR) (WT full-length EcR): able to effectively compete; binding of ligand by the A110P mutant (A110P mutant CfEcR): unaffected

`CCc1ccc(C(=O)NN(C(=O)c2cc(C)cc(C)c2)C(C)(C)C)cc1` [RH-5992] was tested. Which IC50 (wild-type CfEcR-A/BCDEF) did it give?
The IC50 was 133 nM.

And the IC50 [1]?
The IC50 was 0.322 µM.

Which IC50 (wild-type CfEcR-A/BCDEF) does the source give for `Cc1cc(C)cc(C(=O)N(NC(=O)c2ccc3c(c2C)OCCO3)C(C)(C)C)c1` [RH-125020, N′-tert-butyl-N′-(3,5-dimethylbenzoyl)-3,4-(1,2-ethylenedioxy)-2-methylbenzohydrazide] here?
Its IC50 is 10.1 nM.

And the IC50 [1]?
The IC50 was 0.0257 µM.

B1: A110S: CfEcR-DEF LBD substitution mutant, Alanine (A) to Serine (S) (protein, listed as Choristoneura fumiferana)
chain: LTANQQFLIARLIWYQDGYEQPSDEDLKRITQTWQQADDENEESDTPFRQITEMTILTVQLIVEFAKGLPGFAKISQPDQITLLKACSSEVMMLRVARRYDAASDSVLFSNNQAYTRDNYRKAGMAYVIEDLLHFCRCMYSMALDNIHYALLTAVVIFSDRPGLEQPQLVEEIQRYYLNTLRIYILNQLSGSARSSVIYGKILSILSELRTLGMQNSNMCISLKLKNRKLPPFLEEIWDV
B1 was tested. Which “non-steroid reporter activity compared to wild-type receptor” value (CfEcR-DEF) did it give?
Its value is “lower sensitivity and no detectable transactivation at the two lowest concentrations”.

B2: A110L: CfEcR-DEF LBD substitution mutant, Alanine (A) to Leucine (L) (protein, listed as Choristoneura fumiferana)
chain: LTANQQFLIARLIWYQDGYEQPSDEDLKRITQTWQQADDENEESDTPFRQITEMTILTVQLIVEFAKGLPGFAKISQPDQITLLKACSSEVMMLRVARRYDAASDSVLFLNNQAYTRDNYRKAGMAYVIEDLLHFCRCMYSMALDNIHYALLTAVVIFSDRPGLEQPQLVEEIQRYYLNTLRIYILNQLSGSARSSVIYGKILSILSELRTLGMQNSNMCISLKLKNRKLPPFLEEIWDV
With B2 as the molecule, how does the “non-steroid reporter activity compared to wild-type receptor” value (CfEcR-DEF) read?
Its value is “lower sensitivity and no detectable transactivation at the two lowest concentrations”.

B3: A110M: CfEcR-DEF LBD substitution mutant, Alanine (A) to Methionine (M) (protein, listed as Choristoneura fumiferana)
chain: LTANQQFLIARLIWYQDGYEQPSDEDLKRITQTWQQADDENEESDTPFRQITEMTILTVQLIVEFAKGLPGFAKISQPDQITLLKACSSEVMMLRVARRYDAASDSVLFMNNQAYTRDNYRKAGMAYVIEDLLHFCRCMYSMALDNIHYALLTAVVIFSDRPGLEQPQLVEEIQRYYLNTLRIYILNQLSGSARSSVIYGKILSILSELRTLGMQNSNMCISLKLKNRKLPPFLEEIWDV
With B3 as the molecule, how does the “non-steroid reporter activity compared to wild-type receptor” value (CfEcR-DEF) read?
Its value is “lower sensitivity and no detectable transactivation at the two lowest concentrations”.

B4: C217A: DmEcR-CDEF LBD substitution mutant, Cysteine (C) to Alanine (A) (protein)
chain: LTYNQLAVIYKLIWYQDGYEQPSEEDLRRIMSQPDENESQTDVSFRHITEITILTVQLIVEFAKGLPAFTKIPQEDQITLLKACSSEVMMLRMARRYDHSSDSIFFANNRSYTRDSYKMAGMADNIEDLLHFCRQMFSMKVDNVEYALLTAIVIFSDRPGLEKAQLVEAIQSYYIDTLRIYILNRHCGDSMSLVFYAKLLSILTELRTLGNQNAEMAFSLKLKNRKLPKFLEEIWDV
modifications: Drosophila melanogaster
Which “Fold increase over WT, 2.5 μM GS™-E” value (DmEcR-CDEF [2]) does the source give for B4 here?
Its value is 0.008 fold.

And the “Fold increase over WT, 2.5 μM Ponasterone A” value (DmEcR-CDEF [2])?
Its value is 0.022 fold.

What about the “Fold increase over WT, 1 μM 20-hydroxyecdysone” value (DmEcR-CDEF [3]) of the same molecule?
The value was 0.48 fold.

What about the “Fold increase over WT, 1 μM GS™-E” value (DmEcR-CDEF [3]) of the same molecule?
Its value is 0.70 fold.

And the “steroid activity (summary of Table 14)” value (DmEcR-CDEF [3])?
The value was “reduced”.

What about the “non-steroid activity (summary of Table 14)” value (DmEcR-CDEF [3]) of the same molecule?
Its value is “reduced”.

B5: G121L: DmEcR-CDEF LBD substitution mutant, Glycine (G) to Leucine (L) (protein)
chain: LTYNQLAVIYKLIWYQDGYEQPSEEDLRRIMSQPDENESQTDVSFRHITEITILTVQLIVEFAKGLPAFTKIPQEDQITLLKACSSEVMMLRMARRYDHSSDSIFFANNRSYTRDSYKMALMADNIEDLLHFCRQMFSMKVDNVEYALLTAIVIFSDRPGLEKAQLVEAIQSYYIDTLRIYILNRHCGDSMSLVFYAKLLSILTELRTLGNQNAEMCFSLKLKNRKLPKFLEEIWDV
modifications: Drosophila melanogaster
How did the “Fold increase over WT, 2.5 μM GS™-E” value (DmEcR-CDEF [2]) turn out when B5 was run?
Its value is 0.008 fold.

What about the “Fold increase over WT, 2.5 μM Ponasterone A” value (DmEcR-CDEF [2]) of the same molecule?
Its value is 0.001 fold.

And the “Fold increase over WT, 1 μM 20-hydroxyecdysone” value (DmEcR-CDEF [3])?
Its value is 0.09 fold.

And the “Fold increase over WT, 1 μM GS™-E” value (DmEcR-CDEF [3])?
Its value is 0.15 fold.

And the “steroid activity (summary of Table 14)” value (DmEcR-CDEF [3])?
Its value is “lost sensitivity”.

And the “non-steroid activity (summary of Table 14)” value (DmEcR-CDEF [3])?
The value was “lost sensitivity”.
